In US7265120B2, “Pyrazine derivatives and pharmaceutical use thereof” (Astellas Pharma Inc., priority 2004, dated 2007):

| Compound | melting point |
| --- | --- |
| CC(C)n1nc(-c2nc(S(C)(=O)=O)c(N)nc2-c2ccccc2)ccc1=O [Example 55, 6-[5-amino-6-(methylsulfonyl)-3-phenyl-2-pyrazinyl]-2-isopropyl-3(2H)-pyridazinone] | 249 to 251 °C |
| CCn1nc(-c2nc(C(=O)O)c(NCc3ccc(OC)cc3)nc2-c2ccccc2)ccc1=O [Example 57, 6-(1-ethyl-6-oxo-1,6-dihydro-3-pyridazinyl)-3-[(4-methoxybenzyl)amino]-5-phenyl-2-pyrazinecarboxylic acid] | > 250 °C |
| CCn1nc(-c2ncc(NCc3ccc(OC)cc3)nc2-c2ccccc2)ccc1=O [Example 58, 2-ethyl-6-{5-[(4-methoxybenzyl)amino]-3-phenyl-2-pyrazinyl}-3(2H)-pyridazinone] | 148 to 150 °C |
| CCn1nc(-c2ncc(N)nc2-c2ccccc2)ccc1=O [Example 59, 6-(5-amino-3-phenyl-2-pyrazinyl)-2-ethyl-3(2H)-pyridazinone] | 227 to 229 °C |
| Cn1nc(-c2nc(Br)c(N)nc2-c2ccccc2)ccc1=O [Example 60, 6-(5-amino-6-bromo-3-phenyl-2-pyrazinyl)-2-methyl-3(2H)-pyridazinone] | 220 to 222 °C |
| CSc1nc(-c2ccc(=O)n(C)n2)c(-c2ccccc2)nc1N [Example 61, 6-[5-amino-6-(methylthio)-3-phenyl-2-pyrazinyl]-2-methyl-3(2H)-pyridazinone] | 204 to 205.5 °C |
| Cn1nc(-c2nc([S+](C)[O-])c(N)nc2-c2ccccc2)ccc1=O (centres unmarked) [Example 62, 6-[5-amino-6-(methylsulfinyl)-3-phenyl-2-pyrazinyl]-2-methyl-3(2H)-pyridazinone] | 209 to 210.5 °C |
| Cn1nc(-c2nc(S(C)(=O)=O)c(N)nc2-c2ccccc2)ccc1=O [Example 62, 6-[5-amino-6-(methylsulfonyl)-3-phenyl-2-pyrazinyl]-2-methyl-3(2H)-pyridazinone] | 231 to 233 °C |
| CC(C)n1nc(-c2ncc(N=S(C)C)nc2-c2ccccc2)ccc1=O [Example 65, 6-{5-[(dimethyl-lambda˜4˜-sulfanylidene)amino]-3-phenyl-2-pyrazinyl}-2-isopropyl-3(2H)-pyridazinone] | 190 to 194 °C |
| CC(C)n1nc(-c2nc(Br)c(N=O)nc2-c2ccccc2)ccc1=O [Example 67, 6-(6-bromo-5-nitroso-3-phenyl-2-pyrazinyl)-2-isopropyl-3(2H)-pyridazinone] | 164 to 166 °C |
| CC(C)n1nc(-c2nc(O)cnc2-c2ccccc2)ccc1=O [Example 68, 6-(6-hydroxy-3-phenyl-2-pyrazinyl)-2-isopropyl-3(2H)-pyridazinone] | 198 to 200 °C |
| COCOCC#Cc1nc(-c2ccc(=O)n(C(C)C)n2)c(-c2ccccc2)nc1N [Example 71, 6-{5-amino-6-[3-(methoxymethoxy)-1-propyn-1-yl]-3-phenyl-2-pyrazinyl}-2-isopropyl-3(2H)-pyridazinone] | 133 to 135 °C |
| CC(C)n1nc(-c2nc(C#CC3(O)CCCCC3)c(N)nc2-c2ccccc2)ccc1=O [Example 73, 6-{5-amino-6-[(1-hydroxycyclohexyl)ethynyl]-3-phenyl-2-pyrazinyl}-2-isopropyl-3(2H)-pyridazinone] | 238 to 240 °C |
| CC(C)n1nc(-c2nc(C#Cc3ccccn3)c(N)nc2-c2ccccc2)ccc1=O [Example 74, 6-[5-amino-3-phenyl-6-(2-pyridylethynyl)-2-pyrazinyl]-2-isopropyl-3(2H)-pyridazinone] | 245.5 to 247 °C |
| C#Cc1nc(-c2ccc(=O)n(C(C)C)n2)c(-c2ccccc2)nc1N [Example 76, 6-(5-amino-6-ethynyl-3-phenyl-2-pyrazinyl)-2-isopropyl-3(2H)-pyridazinone] | 217 °C (dec.) |
| Cn1nc(-c2nc(C#Cc3ccccc3)c(N)nc2-c2ccccc2)ccc1=O [Example 77, 6-[5-amino-3-phenyl-6-(phenylethynyl)-2-pyrazinyl]-2-methyl-3(2H)-pyridazinone] | 234 to 236 °C |
| CC(C)n1nc(-c2nc(-c3ccccc3)c(N)nc2-c2ccccc2)ccc1=O [Example 78, 6-(5-amino-3,6-diphenyl-2-pyrazinyl)-2-isopropyl-3(2H)-pyridazinone] | 225 to 226 °C |
| CC(C)n1nc(-c2nc(-c3ccsc3)c(N)nc2-c2ccccc2)ccc1=O [Example 79, 6-[5-amino-3-phenyl-6-(3-thienyl)-2-pyrazinyl]-2-isopropyl-3(2H)-pyridazinone] | 228 to 230 °C |
| CC(C)n1nc(-c2nc(-c3cccs3)c(N)nc2-c2ccccc2)ccc1=O [Example 80, 6-[5-amino-3-phenyl-6-(2-thienyl)-2-pyrazinyl]-2-isopropyl-3(2H)-pyridazinone] | 181 to 183 °C |
| CC(C)n1nc(-c2nc(-c3ccoc3)c(N)nc2-c2ccccc2)ccc1=O [Example 81, 6-[5-amino-6-(3-furyl)-3-phenyl-2-pyrazinyl]-2-isopropyl-3(2H)-pyridazinone] | 233 to 235 °C |
| CC(C)n1nc(-c2nc(-c3ccncc3)c(N)nc2-c2ccccc2)ccc1=O [Example 82, 6-[5-amino-3-phenyl-6-(4-pyridyl)-2-pyrazinyl]-2-isopropyl-3(2H)-pyridazinone] | 222 to 224 °C |
| COc1ccc(-c2nc(-c3ccc(=O)n(C(C)C)n3)c(-c3ccccc3)nc2N)cn1 [Example 83, 6-[5-amino-6-(6-methoxy-3-pyridyl)-3-phenyl-2-pyrazinyl]-2-isopropyl-3(2H)-pyridazinone] | 230 to 232.5 °C |
| CC(C)n1nc(-c2nc(-c3cccnc3)c(N)nc2-c2ccccc2)ccc1=O [Example 84, 6-[5-amino-3-phenyl-6-(3-pyridyl)-2-pyrazinyl]-2-isopropyl-3(2H)-pyridazinone] | 224 to 225.5 °C |
| Cn1nc(-c2nc(-c3ccccc3)c(N)nc2-c2ccccc2)ccc1=O [Example 85, 6-(5-amino-3,6-diphenyl-2-pyrazinyl)-2-methyl-3(2H)-pyridazinone] | 220 to 221.5 °C |
| Cn1nc(-c2nc(-c3cccs3)c(N)nc2-c2ccccc2)ccc1=O [Example 86, 6-[5-amino-3-phenyl-6-(2-thienyl)-2-pyrazinyl]-2-methyl-3(2H)-pyridazinone] | 177 °C (dec.) |
| CC(C)n1nc(-c2nc(/C=C/c3ccccc3)c(N)nc2-c2ccccc2)ccc1=O [Example 87, 6-{5-amino-3-phenyl-6-[(E)-2-phenylvinyl]-2-pyrazinyl}-2-isopropyl-3(2H)-pyridazinone] | 244.5 to 245 °C |
| CC(C)n1nc(-c2nc(-c3ccco3)c(N)nc2-c2ccccc2)ccc1=O [Example 88, 6-[5-amino-6-(2-furyl)-3-phenyl-2-pyrazinyl]-2-isopropyl-3(2H)-pyridazinone] | 211 to 213 °C |
| Cn1nc(-c2nc(-c3ccco3)c(N)nc2-c2ccccc2)ccc1=O [Example 89, 6-[5-amino-6-(2-furyl)-3-phenyl-2-pyrazinyl]-2-methyl-3(2H)-pyridazinone] | 186 to 188 °C |
| CC(C)n1nc(-c2nc(-c3cn[nH]c3)c(N)nc2-c2ccccc2)ccc1=O [Example 90, 6-[5-amino-3-phenyl-6-(1H-pyrazol-4-yl)-2-pyrazinyl]-2-isopropyl-3(2H)-pyridazinone] | > 250 °C |
